These results are taken from PMC7570544, “Biological Activities and ADMET-Related Properties of Novel Set of Cinnamanilides” (Molecules, 2020).

Converted amounts (≈) assume the structure as drawn. “And” between values parts separate entries of the source, which are not always exact repeats. Equal values may be shown once. Where only a bound is given, the exact number is not on record here.

The term MIC denotes the lowest concentration found to suppress growth. The term IC50 denotes the concentration needed to halve the response being measured. In general, chromatographic logD refers to a lipophilicity value derived from retention on a column. What is called viability is the share of living cells, or the viability signal relative to a control.

The subject of data set [1] is methicillin-resistant Staphylococcus aureus (MRSA) 63718. Description: In vitro antibacterial evaluation, broth microdilution MIC, MRSA isolate 63718. The format is cell-based. The conditions noted are these: clinical isolate MRSA 63718.
The nature of data set [2]: Lipophilicity determination by RP-TLC. Set-up: key to RM (MeOH:H2O): RM = log(1/RF - 1), from RP-18 TLC. The conditions noted are these: for RM (MeOH:H2O): 72:28 MeOH:H2O; for RM (pH 7.4): 72:28 MeOH:NaOAc buffer (pH 7.4). The format is physicochemical. As to the method:
RM values were determined from the RP-18 TLC measurements. […] The volatiles were carefully evaporated, and the plate was developed by MeOH (100%) or MeOH: H2O-HPLC (72:28 v/v) or MeOH: NaOAc buffer, pH 7.4 (72:28 v/v). After drying, the spots were visualized under UV (λ = 365 nm). RM data were obtained from equation: RM = log(1/RF-1). Each experiment was repeated three times.

The subject of data set [3] is Mycobacterium tuberculosis H37Ra/ATCC 25177. Briefly: In vitro antimycobacterial evaluation. The format is cell-based. The conditions noted are these: M. tuberculosis H37Ra. The source says:
Isoniazid (Sigma) was used as the standard.

Data set [4] has as its system NF-κB in THP1-Blue™ NF-κB cells. Description: Determination of NF-κB activity after LPS stimulation (Quanti-Blue). The conditions noted are these: 1 µM compound, LPS 1 µg/mL; for decrease of NF-κB activity / increase of NF-κB activity: 1 h pretreatment, 24 h, vs DMSO group. The format is cell-based, human. As to the method:
To evaluate the anti-inflammatory potential of novel compounds, their ability to attenuate the lipopolysaccharide (LPS)-activated pro-inflammatory transcription nuclear factor (NF)-κB was measured as was described previously. Briefly, THP1-Blue™ NF-κB cells were pretreated by tested compounds dissolved in DMSO in the non-toxic concentration 1 µM for 1 h. After LPS (1 µg/mL) stimulation, the NF-κB activity was evaluated by Quanti-Blue medium (Invivogen) according to the manufacturer’s instructions. The results from 3 independent experiments performed in triplicate (n = 9) were analyzed by GraphPad Prism 8.0.1 software. The outlaying values were excluded by ROUT algorithms (Q = 5%).
Figure 1 Effect of tested compounds on activity of transcription factor NF-κB. […] Then, lipopolysaccharide (LPS) 1 µg/mL was added to trigger the NF-κB activation. The activity of NF-κB was measured 24 h after LPS stimulation using QuantiBlue™ assay. The graph represents mean ± SEM (n = 9). […] Groups were compared with the help of the one-way ANOVA test followed by Fisher’s LSD multiple comparison test. * indicates statistical significance (p < 0.05) to DMSO group; ** indicates statistical significance (p < 0.01) to DMSO group; *** indicates statistical significance (p < 0.001) to DMSO group; **** indicates statistical significance (p < 0.0001) to DMSO group. CA—cinnamic acid.

For data set [5], the system named is THP1-Blue™ NF-κB cell line. Description: In vitro cell viability assay (WST-1). The conditions noted are these: Homo sapiens; THP1-Blue NF-κB cells, 24 h incubation, WST-1, mean ± SEM, n = 6; read-out: Tox IC50 ± SEM. Format: cell-based. As to the method:
The cytotoxic effect of the tested compounds was specified on THP1-Blue™ NF-κB cell line (Invivogen; San Diego, CA, USA), as described previously. […] The final concentration of DMSO was 0.1% (v/v) in each well. The viability analysis was performed after 24 h incubation with the tested substances using the WST-1 Cell Proliferation Reagent kit (Roche Diagnostics, Basel, Switzerland) according to the manufacturer’s manual. […] The IC50 values were calculated by four-parameter logistic (4PL) analysis from obtained viability curves by GraphPad Prism 8.0.1 (San Diego, CA, USA) software.
In general terms: Formazan colour is commonly taken as a measure of viable cells.

The conditions of data set [6]: RP-HPLC, 72:28 MeOH:H2O.
The subject of data set [7] is methicillin-resistant Staphylococcus aureus (MRSA) SA 630. Description: In vitro antibacterial evaluation, broth microdilution MIC, MRSA isolate SA 630. The conditions noted are these: clinical isolate MRSA SA 630. The format is cell-based.
Data set [8] concerns Staphylococcus aureus ATCC 29213. Briefly: In vitro antibacterial evaluation, broth microdilution MIC, reference strain. Format: cell-based. The conditions noted are these: S. aureus ATCC 29213. (In general: Broth dilution looks for growth in wells or tubes with falling amounts of substance.)
For a further data set, the system named is S. aureus ATCC 29213. Briefly: MTT assay of bacterial viability. The conditions noted are these: Staphylococcus aureus, ATCC29213, read-out: viability of S. aureus ATCC 29213 (MTT).
The test system of data set [9] is S. aureus and MRSA isolates. Briefly: Minimum bactericidal concentration (MBC) by subcultivation.
Setting [10] is: Staphylococcus aureus, ATCC29213.

As for `O=C(/C=C/c1ccccc1)Nc1ccc(F)cc1C(F)(F)F` [Compound 14, (2E)-N-[4-Fluoro-2-(trifluoromethyl)phenyl]-3-phenylprop-2-enamide], the MIC was greater than 828 µM in data set [1], greater than 414 µM in data set [3], greater than 828 µM in [7] and greater than 828 µM in data set [8] (setting [10]). Besides, the “RM (MeOH:H2O)” value in [2] was 0.3011. For the same compound, the “RM (pH 7.4)” value in data set [2] was 0.1330. Besides, the “RM (100% MeOH)” value in data set [2] is given as −0.6797. Also, the “decrease of NF-κB activity” value in [4] is given as “approximately 9%”. The IC50 in data set [5] is greater than 20 µM. In [6], this compound yielded a Logk of 0.1607. The chromatographic logD in “physchem” (pH 6.5) was 0.222; in the data set “physchem” (pH 7.4) it was 0.243.
Turning to `O=C(/C=C/c1ccccc1)Nc1ccc(C(F)(F)F)c(F)c1` [Compound 10, (2E)-N-[3-Fluoro-4-(trifluoromethyl)phenyl]-3-phenylprop-2-enamide], the MIC in data set [1] was 25.9 µM (≈ 8.01 µg/mL); in data set [3], greater than 414 µM; in data set [7], 12.9 µM (≈ 3.99 µg/mL); in [8] it was 25.9 µM (≈ 8.01 µg/mL); in [8] (setting [10]), 8 µg/mL and 25.9 µM. Moreover, in data set [2], the “RM (MeOH:H2O)” value worked out at 0.7923. Moreover, in data set [2], the “RM (pH 7.4)” value is reported as 0.5960. Also, in [2], the “RM (100% MeOH)” value is given as −0.5032. For the same compound, the viability at 25.9 µM in the data set on S. aureus ATCC 29213 is 13.4 ± 0.1%. The MBC entry in data set [9] (S. aureus and MRSA isolates, compared with MIC) is recorded as “equal to the MIC values”. For the same compound, the bacteriostatic/bactericidal classification entry in [9] (bactericidal if MBC/MIC ≤4) is given as “bactericidal”. The “increase of NF-κB activity” value in [4] is listed as 10–15%. The IC50 in [5] is greater than 20 µM. In addition, the Logk in [6] was determined as 0.5789. Moreover, the chromatographic logD worked out at 0.61 in the data set “physchem” (pH 6.5) and 0.633 in “physchem” (pH 7.4).
As for `O=C(/C=C/c1ccccc1)Nc1cc(Cl)c(Cl)cc1Cl` [Compound 5, (2E)-3-Phenyl-N-(2,4,5-trichlorophenyl)prop-2-enamide], the MIC in [1], in data set [7] and in data set [8] (setting [10]) was greater than 790 µM throughout. Moreover, the “RM (MeOH:H2O)” value in data set [2] turned out to be 0.9695. In addition, the “RM (pH 7.4)” value in data set [2] is 0.9832. The “RM (100% MeOH)” value in data set [2] is −0.2497. Also, the “increase of NF-κB activity” value in data set [4] was 10–15%. Further, the IC50 in data set [5] was greater than 20 µM. In [6], this compound registered a Logk of 0.8373. The figures for the chromatographic logD in the data set “physchem” (pH 6.5) and in “physchem” (pH 7.4) were 0.865 and 0.888, respectively.
In the case of `O=C(/C=C/c1ccccc1)Nc1ccc(Cl)cc1Cl` [Compound 4, (2E)-N-(2,4-Dichlorophenyl)-3-phenylprop-2-enamide], the MIC in [1], in [7] and in data set [8] (setting [10]) was greater than 880 µM each time. In addition, the “RM (MeOH:H2O)” value in data set [2] is reported as 0.6546. The “RM (pH 7.4)” value in data set [2] stood at 0.5495. Besides, in data set [2], the “RM (100% MeOH)” value is listed as −0.3933. Besides, in data set [4], the “increase of NF-κB activity” value is given as 10–15%. The IC50 in data set [5] is greater than 20 µM. Moreover, in [6], the Logk is on record as 0.5278. Besides, the chromatographic logD in “physchem” (pH 6.5) amounted to 0.569; in the data set “physchem” (pH 7.4) it was 0.589.
Consider `O=C(/C=C/c1ccccc1)Nc1c(F)cc(F)cc1F` [Compound 2, (2E)-3-Phenyl-N-(2,4,6-trifluorophenyl)prop-2-enamide], for which the MIC in data set [1] was greater than 924 µM; in [3] it was greater than 462 µM; in [7] it was greater than 924 µM; in [8] (setting [10]), greater than 924 µM. The “RM (MeOH:H2O)” value in data set [2] is given as 0.1218. Besides, the “RM (pH 7.4)” value in [2] stood at 0.1951. In addition, the “RM (100% MeOH)” value in data set [2] is given as −0.6536. The “increase of NF-κB activity” value in data set [4] is reported as 10–15%. Moreover, in data set [5], the IC50 is greater than 20 µM. The compound also registered a Logk in [6] of −0.0831. The values for the chromatographic logD in the data set “physchem” (pH 6.5) and in “physchem” (pH 7.4) were 0.0107 and 0.026, respectively.
On to `O=C(/C=C/c1ccccc1)Nc1cc(C(F)(F)F)ccc1Br` [Compound 13, (2E)-N-[2-Bromo-5-(trifluoromethyl)phenyl]-3-phenylprop-2-enamide], for which the MIC in data set [1] was greater than 696 µM; in [3], greater than 348 µM; in data set [7] it was greater than 696 µM; in data set [8] (setting [10]) it was greater than 696 µM. In [2], the “RM (MeOH:H2O)” value turned out to be 0.7194. For the same compound, the “RM (pH 7.4)” value in data set [2] was 0.5619. For the same compound, the “RM (100% MeOH)” value in [2] is recorded as −0.4325. The “anti-inflammatory potential (LPS-induced NF-κB activation), in words” value in data set [4] was “insignificant anti-inflammatory potential”. The IC50 in data set [5] is greater than 20 µM. In data set [6], this compound yielded a Logk of 0.5561. For the same compound, the chromatographic logD in the data set “physchem” (pH 6.5) came to 0.594; in “physchem” (pH 7.4) it was 0.616.
On to `O=C(/C=C/c1ccccc1)Nc1c(Br)cc(F)c(Cl)c1Br` [Compound 20, (2E)-N-(2,6-Dibromo-3-chloro-4-fluorophenyl)-3-phenylprop-2-enamide], for which the MIC is greater than 595 µM in data set [1], greater than 298 µM in data set [3], greater than 595 µM in [7] and greater than 595 µM in data set [8] (setting [10]). For the same compound, the “RM (MeOH:H2O)” value in [2] was found to be 0.4320. Further, in data set [2], the “RM (pH 7.4)” value was found to be 0.4138. Moreover, the “RM (100% MeOH)” value in data set [2] is given as −0.5541. Further, in data set [4], the “decrease of NF-κB activity” value is listed as “approximately 9%”. Further, in data set [4], the “anti-inflammatory potential (LPS-induced NF-κB activation), in words” value is reported as “more potent than the parental cinnamic acid”. Besides, in [5], the IC50 is greater than 20 µM. For the same compound, in data set [6], the Logk came out at 0.3139. Further, the chromatographic logD in “physchem” (pH 6.5) was 0.37; in “physchem” (pH 7.4), 0.392.
For the compound `O=C(/C=C/c1ccccc1)Nc1ccc([N+](=O)[O-])c(C(F)(F)F)c1` [Compound 18, (2E)-N-[4-Nitro-3-(trifluoromethyl)phenyl]-3-phenylprop-2-enamide], the MIC is greater than 762 µM in data set [1], greater than 381 µM in data set [3], greater than 762 µM in data set [7] and greater than 762 µM in [8] (setting [10]). Also, the “RM (MeOH:H2O)” value in [2] was found to be 0.6927. The “RM (pH 7.4)” value in data set [2] is 0.6160. In addition, the “RM (100% MeOH)” value in [2] is −0.4804. In addition, in [4], the “decrease of NF-κB activity” value is given as “approximately 9%”. Further, the IC50 in data set [5] was greater than 20 µM. In addition, in data set [6], the Logk turned out to be 0.5004. Moreover, the chromatographic logD came out at 0.51 in the data set “physchem” (pH 6.5) and 0.557 in “physchem” (pH 7.4).
